Columns and labels:
Set-up in all cases: species or system E. coli
[1] = tested on: modified 16S RNA (5IU1495; 5-iodouridine at position U1495, PEG-6 chain at 5′-hydroxyl); experiment: ESI-FT-ICR MS ligand binding to 27-mer 16S RNA modified at U1495; conditions: Example 3: ribostamycin 2.5 μM
Description: (§1) The following examples illustrate preferred embodiments of the present invention using mass spectrometry. Experiments were performed using a 7.0 Tesla Fourier transform ion cyclotron resonance (FT-ICR) mass spectrometer with an electrospray ionization source operating in the negative mode. A −3000 V difference was employed between the spray tip and the inlet capillary to generate the electrospray. Samples were introduced at a flow rate of 1.5 uL/min using a Harvard syringe pump and a 50 uL glass syringe. The desolvation of the electrospray droplets was aided by a flow of countercurrent gas at 1 L/min. Ions were accumulated for 1.0 sec in an intermediate hexapole ion storage region at 1.0×10^−5 mbar. Following transfer to the FT-ICR analysis cell, the image current was measured over a mass range of 500-4000 m/z. Typically, a total of 32 transients containing 512 kbytes were summed prior to Fourier transformation. […]
(§2) An aqueous solution containing 50 mM ammonium acetate buffer (pH 7.0), 33% isopropyl alcohol, ribostamycin (2.5 μM), 16S RNA (2.5 μM) and a modified 16S RNA (2.5 μM) was prepared. […] The peaks were integrated and ion abundances determined. Fractions of 16S+ribost and 5IU1495+ribost complexes were determined to be 67.6% and 29.9±1% for the free 16S RNA and 5IU1495 RNA, respectively.

[2] = tested on: 16S RNA (27-mer RNA model of the prokaryotic A-site 16S RNA); experiment: ESI-FT-ICR MS ligand binding to unmodified 27-mer 16S RNA
Description: (§3) The following examples illustrate preferred embodiments of the present invention using mass spectrometry. Experiments were performed using a 7.0 Tesla Fourier transform ion cyclotron resonance (FT-ICR) mass spectrometer with an electrospray ionization source operating in the negative mode. A −3000 V difference was employed between the spray tip and the inlet capillary to generate the electrospray. Samples were introduced at a flow rate of 1.5 uL/min using a Harvard syringe pump and a 50 uL glass syringe. The desolvation of the electrospray droplets was aided by a flow of countercurrent gas at 1 L/min. Ions were accumulated for 1.0 sec in an intermediate hexapole ion storage region at 1.0×10^−5 mbar. Following transfer to the FT-ICR analysis cell, the image current was measured over a mass range of 500-4000 m/z. Typically, a total of 32 transients containing 512 kbytes were summed prior to Fourier transformation. The m/z values were calibrated on the signal from the [M-5H^+]^5− charge state of the free RNA at 1726.509.
An aqueous solution containing 100 mM ammonium acetate buffer (pH 7.0), 33% isopropyl alcohol, gentamicin (2 μM, present in three forms), 16S RNA (2.5 μM) and a modified 16S RNA (2.5 μM) was prepared. Modified 27-mer 16S RNA contained a 5-iodouridine residue at position 13 in the UUCG tetraloop (See FIG. 1). The resulting mass spectra (see FIG. 3, upper spectrum) contained identifiable peaks corresponding to free 16S RNA (m/z 1726.5), free modified 16S RNA(5IUtetra; m/z 1750.7), 16S complexed with the three forms of gentamicin present in the sample (16S+genta; m/z 1816-1825), and 16S(5IUtetra) complexed with the three forms of gentamicin (5IUtetra+genta; m/z 1841-1849). The peaks were integrated and ion abundances determined. Fractions of 16S+genta and 5IUtetra+genta complexes were determined to be 70.4% and 68.2±1% for the free 16S RNA and 5IUtetraRNA, respectively.
An aqueous solution containing 100 mM ammonium acetate buffer (pH 7.0), 33% isopropyl alcohol, gentamicin (2 μM), 16S RNA (2.5 μM) and a modified 16S RNA (2.5 μM) was prepared. Modified 27-mer 16S RNA contained a 5-iodouridine residue at position U1406 at the position of a U-U mismatch base pair (E. coli numbering system). The resulting mass spectra (see FIG. 3, lower spectrum) contained identifiable peaks corresponding to free 16S RNA (m/z 1726.5), free modified 16S RNA(5IU1406; m/z 1750.7), 16S complexed with the three forms of gentamicin present in the sample (16S+genta; m/z 1816-1825), and 16S(5IU1406) complexed with the three forms of gentamicin (5IU1406+genta; m/z 1841-1849). The peaks were integrated and ion abundances determined. Fractions of 16S+genta and 5IU1406+genta complexes were determined to be 66.8% and 28.1±1% for the free 16S RNA and 5IU1406 RNA, respectively.
as §2, with “The resulting mass spectra (see FIG. 4) contained identifiable peaks corresponding to free 16S RNA (m/z 1726.5), free modified 16S RNA(5IU 1495; m/z 1821.4), 16S complexed with ribostamycin present in the sample (16S+ribost; m/z 1818.6), and 16S(5IU1495) complexed with ribostamycin (5IU1495+ribost; m/z 1912.3). The” for “The”
An aqueous solution containing 100 mM ammonium acetate buffer (pH 7.0), 33% isopropyl alcohol, gentamicin (1 μM), 16S RNA (5 μM) and a modified 16S RNA (5.5 μM) was prepared. Modified 27-mer 16S RNA contained a 3′-phosphorothioate residue at position G1491 at the position of a G-C base pair (E. coli numbering system) and a C12O6 PEG mass tag off the 5′-hydroxyl group. Mass spectra were obtained using the standard protocol described above. […]

[3] = tested on: modified 16S RNA (5IUtetra; 5-iodouridine at position 13 in the UUCG tetraloop); experiment: ESI-FT-ICR MS ligand binding to 27-mer 16S RNA modified at the tetraloop
Description: as §1
An aqueous solution containing 100 mM ammonium acetate buffer (pH 7.0), 33% isopropyl alcohol, gentamicin (2 μM, present in three forms), 16S RNA (2.5 μM) and a modified 16S RNA (2.5 μM) was prepared. […] The peaks were integrated and ion abundances determined. Fractions of 16S+genta and 5IUtetra+genta complexes were determined to be 70.4% and 68.2±1% for the free 16S RNA and 5IUtetraRNA, respectively.

[4] = tested on: modified 16S RNA (5IU1406; 5-iodouridine at position U1406); experiment: ESI-FT-ICR MS ligand binding to 27-mer 16S RNA modified at U1406; conditions: Example 2: gentamicin 2 μM
Description: as §3
An aqueous solution containing 100 mM ammonium acetate buffer (pH 7.0), 33% isopropyl alcohol, gentamicin (2 μM), 16S RNA (2.5 μM) and a modified 16S RNA (2.5 μM) was prepared. […] The peaks were integrated and ion abundances determined. Fractions of 16S+genta and 5IU1406+genta complexes were determined to be 66.8% and 28.1±1% for the free 16S RNA and 5IU1406 RNA, respectively.

[5] = Example 1: gentamicin 2 μM (three forms), 16S RNA 2.5 μM with 5IUtetra RNA 2.5 μM, 100 mM ammonium acetate pH 7.0, 33% isopropyl alcohol

Row | Compound | Amount of 5IU1495+ribost as % of the amount of 16S+ribost [1] [%] | Fraction of 5IU1495+ribost complex ([1]; 16S RNA 2.5 μM with 5IU1495 RNA 2.5 μM, 50 mM ammonium acetate pH 7.0, 33% isopropyl alcohol) [%] | Fraction of 16S+ribost complex ([2]; Example 3: ribostamycin 2.5 μM, 16S RNA 2.5 μM with 5IU1495 RNA 2.5 μM, 50 mM ammonium acetate pH 7.0, 33% isopropyl alcohol) [%] | Fraction of 16S+ribost complex ([2]; Example 5: ribostamycin 1 μM, 16S RNA 5 μM with 5′-PS-G1491 RNA 5.5 uM, 100 mM ammonium acetate pH 7.0, 33% isopropyl alcohol) [%] | Fraction of 16S+ribost complex ([2]; Example 7: ribostamycin 1 μM, 16S RNA 5 μM with 5′-PS-A1492 RNA 5.5 μM, 100 mM ammonium acetate pH 7.0, 33% isopropyl alcohol) [%] | Fraction of 16S+genta complex [2, 5] [%] | Fraction of 16S+genta complex ([2]; Example 2: gentamicin 2 μM, 16S RNA 2.5 μM with 5IU1406 RNA 2.5 μM, 100 mM ammonium acetate pH 7.0, 33% isopropyl alcohol) [%] | Fraction of 16S+genta complex ([2]; Example 4: gentamicin 1 μM (lowest mass form integrated), 16S RNA 5 μM with 5′-PS-G1491 RNA 5.5 μM, 100 mM ammonium acetate pH 7.0, 33% isopropyl alcohol) [%] | Fraction of 16S+genta complex ([2]; Example 6: gentamicin 1 μM (lowest mass form integrated), 16S RNA 5 μM with 5′-PS-A1492 RNA 5.5 μM, 100 mM ammonium acetate pH 7.0, 33% isopropyl alcohol) [%] | Effect of 5-iodouridine residue in the tetraloop on the abundance of the gentamicin-RNA complex ([3]; Example 1: 5IUtetra versus 16S RNA) | Fraction of 5IUtetra+genta complex [3, 5] [%] | Amount of 5IU1406+genta as % of the amount of 16S+genta [4] [%] | Fraction of 5IU1406+genta complex ([4]; 16S RNA 2.5 μM with 5IU1406 RNA 2.5 μM, 100 mM ammonium acetate pH 7.0, 33% isopropyl alcohol) [%]
1 | NC[C@H]1O[C@H](O[C@H]2[C@H](O[C@@H]3O[C@H](CO)[C@@H](O)[C@H]3O)[C@@H](O)[C@H](N)C[C@@H]2N)[C@H](N)[C@@H](O)[C@@H]1O [ribostamycin] | 44 | 29.9±1 | 67.6 | 0.105 | 0.101 |  |  |  |  |  |  |  | 
2 | gentamicin |  |  |  |  |  | 70.4 | 66.8 | 0.127 | 0.121 | no effect | 68.2±1 | 42 | 28.1±1

Source: patent publication US6787315B2, “Methods for identifying ligand binding sites in a biomolecule” (priority 2001, dated 2004)
